# Assay results published in patent US8362256B2, “Salts of N-[4-(1-cyanocyclopentyl)phenyl]-2-(4-pyridylmethyl)amino-3-pyridinecarboxamide” (Jiangsu Hengrui Medicine Co. Ltd., priority 2008, dated 2013).
# Several values for one entry are separate records, joined by “and”; a condition that tells them apart may be missing. Identical values can stand only once. Like-named read-outs stand apart in the source and are kept apart here.
# Tests used:
# colon cancer Ls174t = settings: cited from earlier work
# [1] = Stability in different conditions, content by HPLC; format: physicochemical; settings: for content after 6 Months Under Light / content after 6 Months at 60° C. / content after 6 Months at Room Temperature: HPLC, initial purity 99.6%
# [2] = tested on: kinases Ret, VEGFR-1, PDGFR-β, c-kit, cSRC; settings: cited from earlier work
# VEGFR-2 = VEGFR-2 (Homo sapiens, UniProt P35968); settings: enzyme level tests in different laboratories; cited from earlier work
# Solubility = format: physicochemical
# [3] = tested on: non-small cell lung cancer A549; settings: cited from earlier work
# [4] = Bioavailability of compound A by oral administration (Example 4); format: in vivo, Sprague-Dawley (SD) rats; settings: SD rats
# Protocol: (§1) I. Analysis Condition of LC/MS/MS
# (§2) Analysis Condition of Liquid Chromatography
# (§3) Column temperature: 25° C.;
# (§4) A: 25%+B: 75%, constant gradient elution;
# (§5) Analysis time: 3 minutes.
# Only after one week adaption, the rats could be used to conduct pharmacokinetics animal experiment.
# The blood samples were collected into test tubes containing heparin added in advance, and then centrifuged to produce plasma. […] Euthanasia was performed on used rats with CO2 gas.
# in vivo = settings: rat, po, 1 mmol/kg
# Description: Male Sprague-Dawley (SD) rats (weight: about 250 g, experimental animal certification of fitness: 0006473) were purchased from Shanghai Slaccas experimental animals limited liability company (certification number: SCXK (Hu) 2003-0003). The relevant qualifications and state of health of the SD rats were checked first, and the eligible ones were placed into the clean grade chambers of rats in Shanghai institute of Materia Medica.
# as §1, §2
# Chromatographic column: Agilent Zorbax SB-C18 column (50 mm×2.1 mm ID);
# as §3
# Mobile phase: A: H2O—CH3CN (2:98, v/v), B: H2O—CH3CN (10:90, v/v)
# as §4, §5
# The light circle was switched to 12/12 hour day/night in the clean grade chambers of rats. Humidity and temperature were 40-60% and 20-24° C., respectively. Every 4 rats were raised in a 36×24×19 cm^3 stainless rat cage. The rats took water freely and were fed special rat food regularly once daily. Only after one week adaption, the rats were used to conduct pharmacokinetics studies. 12 Sprague-Dawley rats were divided into 4 groups, 3 for each group.
# The blood samples were collected 0 hour before the administration and 0.083, 0.25, 0.5, 1.0, 2, 4, 6, and 8 hours after the administration. The blood samples were collected at 250˜300 μL at each time point from posterior venous sinus of the eye after respiration anaesthesia with ether (the degree of anaesthesia was highly controlled). The blood was collected into test tubes containing heparin, and then was centrifuged to produce plasma. The obtained plasma was divided into 2 parts (50 μL for each part) and stored at −70° C. until analysis. […] After experiments, euthanasia was performed with CO2 gas.
# Pharmacokinetics parameters of animal experiment of each group were calculated using InnaPhase Kinetica™ software (America).
# c-Src = c-Src (Homo sapiens, UniProt P12931); test: ELISA tyrosine kinase inhibition; format: biochemical; settings: concentration increased to 10^4 nM
# Protocol: Phosphorylation of substrate was determined with monoclonal antibody of anti-phosphorylation tyrosine (PY99). Goat anti-mouse IgG marked with HRP was then added, and the degree of phosphorylation of substrate was determined with OPD coloration. At the same time, the control group without tyrosine kinase and control wells of corresponding DMSO concentration were set up. 2 M of H2SO4 was added in 50 μl/well to terminate the reaction. Data was read with adjustable wavelength micro plate enzyme-labeling instrument VERSAmax (Sunnyvale, Calif., U.S.A.), followed by visualization reaction, OD490 nm value was then observed.
# Relative inhibition rate of drugs on tyrosine kinase protein was determined.
# [5] = 75 mg/kg; initial tumor volume 25-100 mm3; 28 days or more; cited from earlier work
# human colon cancer HT-29 = test: Efficacy on human colon cancer HT-29 transplanted in nude mice
# Protocol: BALB/cA-nude mice, ♀, 5-6 weeks-old, purchased from Shanghai Slaccas experimental animals limited liability company. […] Rearing environment: SPF grade.
# (§6) After one week adaption, the experimental animals were subcutaneously inoculated with human colon cancer HT-29 tumor tissues. When the tumors grew to 100-300 mm^3, the animals were randomly divided into several groups. […] Volume of tumors and weight of mice were measured 2-3 times every week, the data of which were recorded. The equation for the calculation of volume of tumors (V) is: V=½×a×b^2 wherein a, b represent length and width, respectively.
# [6] = tested on: human colon cancer Ls174t; test: Efficacy on human colon cancer Ls174t transplanted in nude mice; settings: for Weight after Removing Tumor, d0 / TV x ± SD, d0: d0 baseline; for RTV x ± SD / T/C / TV x ± SD, dn: dn 14 days; for Weight after Removing Tumor, dn: dn 14 days after first administration
# Protocol: BALB/cA-nude mice, ♀, 5-6 weeks-old, available from Shanghai Slaccas experimental animals limited liability company. […] Rearing environment: SPF grade.
# as §6, with “Ls174t” for “HT-29”, “groups in day 0 (d0).” for “groups.”, “The volumes” for “Volume”, “the weights” for “weight”, “a and” for “a,”
# [7] = oral 20 mg/kg, individual rats, 20 mg/kg
# [8] = 200 mg/kg p.o. once daily d0-d20, dn 21 days
# [9] = 50 mg/kg p.o. once daily d0-d13
# [10] = 100 mg/kg p.o. once daily d0-d13
# [11] = 200 mg/kg p.o. once daily d0-d13
# Chain of VEGFR-2 (P35968 20-1356, species assumed): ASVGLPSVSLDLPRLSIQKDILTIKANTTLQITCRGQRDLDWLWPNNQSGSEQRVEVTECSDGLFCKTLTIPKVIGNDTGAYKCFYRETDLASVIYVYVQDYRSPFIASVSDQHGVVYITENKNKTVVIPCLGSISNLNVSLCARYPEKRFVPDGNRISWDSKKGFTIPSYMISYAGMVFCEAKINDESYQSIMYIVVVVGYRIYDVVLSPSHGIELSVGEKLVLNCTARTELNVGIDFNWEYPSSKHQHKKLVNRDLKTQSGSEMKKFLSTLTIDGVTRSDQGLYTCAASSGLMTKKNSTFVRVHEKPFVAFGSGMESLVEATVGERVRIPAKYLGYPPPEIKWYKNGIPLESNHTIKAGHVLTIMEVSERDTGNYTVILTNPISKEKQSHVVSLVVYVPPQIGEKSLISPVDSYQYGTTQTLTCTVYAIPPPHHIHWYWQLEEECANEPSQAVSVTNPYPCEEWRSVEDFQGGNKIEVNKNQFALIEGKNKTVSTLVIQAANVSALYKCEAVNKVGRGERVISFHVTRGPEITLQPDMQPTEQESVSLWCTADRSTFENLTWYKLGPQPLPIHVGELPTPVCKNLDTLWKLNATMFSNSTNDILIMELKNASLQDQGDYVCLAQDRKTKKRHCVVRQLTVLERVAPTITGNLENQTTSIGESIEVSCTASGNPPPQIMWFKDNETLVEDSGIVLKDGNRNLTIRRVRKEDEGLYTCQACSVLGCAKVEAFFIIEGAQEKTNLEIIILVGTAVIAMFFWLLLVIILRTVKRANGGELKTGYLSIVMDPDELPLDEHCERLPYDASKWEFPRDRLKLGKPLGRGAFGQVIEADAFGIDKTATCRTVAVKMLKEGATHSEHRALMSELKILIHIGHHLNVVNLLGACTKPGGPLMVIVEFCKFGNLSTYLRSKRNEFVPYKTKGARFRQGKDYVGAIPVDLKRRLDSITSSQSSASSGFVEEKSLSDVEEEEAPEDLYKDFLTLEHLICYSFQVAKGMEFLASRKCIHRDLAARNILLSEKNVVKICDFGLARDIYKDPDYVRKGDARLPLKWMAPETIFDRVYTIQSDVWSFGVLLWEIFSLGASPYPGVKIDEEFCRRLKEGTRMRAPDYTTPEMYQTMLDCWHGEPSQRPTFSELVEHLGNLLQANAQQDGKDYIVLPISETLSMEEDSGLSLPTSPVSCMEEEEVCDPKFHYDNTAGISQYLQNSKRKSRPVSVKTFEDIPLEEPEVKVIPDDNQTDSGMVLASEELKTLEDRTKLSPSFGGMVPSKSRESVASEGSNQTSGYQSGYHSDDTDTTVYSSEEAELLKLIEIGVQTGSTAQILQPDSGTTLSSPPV
# Chain of c-Src (P12931 whole entry, species assumed): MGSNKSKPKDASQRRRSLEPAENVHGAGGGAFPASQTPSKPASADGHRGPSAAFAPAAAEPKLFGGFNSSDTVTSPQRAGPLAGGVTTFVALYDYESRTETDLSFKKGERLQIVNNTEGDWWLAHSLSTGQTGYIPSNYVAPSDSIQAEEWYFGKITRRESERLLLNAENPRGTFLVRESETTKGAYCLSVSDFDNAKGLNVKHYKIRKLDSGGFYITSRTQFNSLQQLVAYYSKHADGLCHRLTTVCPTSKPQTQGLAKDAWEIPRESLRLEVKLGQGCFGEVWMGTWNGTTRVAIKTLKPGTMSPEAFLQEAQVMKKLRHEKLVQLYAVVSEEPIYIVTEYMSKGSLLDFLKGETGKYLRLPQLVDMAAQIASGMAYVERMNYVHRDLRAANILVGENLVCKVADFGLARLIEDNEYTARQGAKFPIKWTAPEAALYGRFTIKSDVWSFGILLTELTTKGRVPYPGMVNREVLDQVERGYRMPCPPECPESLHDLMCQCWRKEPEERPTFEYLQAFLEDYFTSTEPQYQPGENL
compound,measurement,setting,value
"N#CC1(c2ccc(NC(=O)c3cccnc3NCc3ccncc3)cc2)CCCC1 [Compound A, N-[4-(1-cyanocyclopentyl)phenyl]-2-(4-pyridylmethyl)amino-3-pyridine carboxamide]",efficacy in combination with oxaliplatin,colon cancer Ls174t; combination with oxaliplatin,improved
same,toxicity in combination with oxaliplatin,"colon cancer Ls174t; mouse, in vivo",not increased
same,efficacy on colon cancer Ls174t transplanted in nude mice,"colon cancer Ls174t; used alone, compared with PTK787",distinctly better than PTK787
same,content after 6 Months Under Light,[1],95.2%
same,content after 6 Months at 60° C.,[1],92.2%
same,content after 6 Months at Room Temperature,[1],95.7%
same,"inhibition activity on kinases Ret, VEGFR-1, PDGFR-β, c-kit, cSRC",[2],certain selective inhibition activity
same,IC50,VEGFR-2,~1 nM
same,Solubility in water,Solubility,Insoluble
same,efficacy on non-small cell lung cancer A549 transplanted in nude mice,[3]; compared with PTK787,distinctly better than PTK787
same,maximum efficacy on A549,[3]; compared with ZD6474 at a customary dose,equivalent to ZD6474
same,"CL, Mean ± SD","[4]; oral 20 mg/kg, 3 rats",1520 ± 393 mL/min/kg
same,"Kel, Mean ± SD","[4]; oral 20 mg/kg, 3 rats",0.426 ± 0.169 h⁻¹
same,"Vd, Mean ± SD","[4]; oral 20 mg/kg, 3 rats",300 ± 69.4 L/kg
same,AUC0→8h,[4]; [7],295 ng·h/mL and 211 ng·h/mL
same,CL,[4]; [7],1920 mL/min/kg and 1120 mL/min/kg and 1540 mL/min/kg
same,Cmax,[4]; [7],68.9 ng/mL and 79.2 ng/mL
same,Kel,[4]; [7],0.325 h⁻¹ and 0.622 h⁻¹ and 0.332 h⁻¹
same,MRT,[4]; [7],3.38 h and 3.32 h
same,T1/2,[4]; [7],1.12 h and 2.09 h
same,Tmax,[4]; [7],1 h
same,Vd,[4]; [7],366 L/kg and 228 L/kg and 308 L/kg
same,AUC(0-t),"[4]; male, Sprague-Dawley, rat, plasma, po, 20 mg/kg, 3 rats, read-out: AUC0→8h, Mean ± SD",226 ± 63 ng·h/mL
same,Cmax,"[4]; male, Sprague-Dawley, rat, plasma, po, 20 mg/kg, 3 rats, read-out: Cmax, Mean ± SD",69.6 ± 9.2 ng/mL
same,MRT,"[4]; male, Sprague-Dawley, rat, plasma, po, 20 mg/kg, 3 rats, read-out: MRT, Mean ± SD",3.3 ± 0.09 h
same,half-life,"[4]; male, Sprague-Dawley, rat, plasma, po, 20 mg/kg, 3 rats, read-out: T1/2, Mean ± SD (converted)",1.78 ± 0.57 h
same,Tmax,"[4]; male, Sprague-Dawley, rat, plasma, po, 20 mg/kg, 3 rats, read-out: Tmax, Mean ± SD",1.33 ± 0.29 h
same,AUC(0-t),"[4]; male, Sprague-Dawley, rat, plasma, po, 20 mg/kg, individual rats, read-out: AUC0→8h",172 ng·h/mL
same,Cmax,"[4]; male, Sprague-Dawley, rat, plasma, po, 20 mg/kg, individual rats, read-out: Cmax",60.8 ng/mL
same,MRT,"[4]; male, Sprague-Dawley, rat, plasma, po, 20 mg/kg, individual rats, read-out: MRT",3.2 h
same,half-life,"[4]; male, Sprague-Dawley, rat, plasma, po, 20 mg/kg, individual rats, read-out: T1/2 (converted)",2.13 h
same,Tmax,"[4]; male, Sprague-Dawley, rat, plasma, po, 20 mg/kg, individual rats, read-out: Tmax",1.5 h
Cl.N#CC1(c2ccc(NC(=O)c3cccnc3NCc3ccncc3)cc2)CCCC1 [Hydrochloride of compound A],stability (conclusion of stability experiments),[1],most satisfying
same,content after 6 Months Under Light,[1],97.6%
same,content after 6 Months at 60° C.,[1],94.7%
same,content after 6 Months at Room Temperature,[1],98.2%
same,AUC0→8 h Mol dose,in vivo,17653 ± 3232 ng·h/mL
same,Solubility in water,Solubility,very slightly
N#CC1(c2ccc(NC(=O)c3cccnc3NCc3ccncc3)cc2)CCCC1.O=C(O)/C=C\C(=O)O [Maleate of compound A],content after 6 Months Under Light,[1],94.2%
same,content after 6 Months at 60° C.,[1],93.5%
same,content after 6 Months at Room Temperature,[1],96.4%
same,AUC0→8 h Mol dose,in vivo,11697 ± 8807 ng·h/mL
same,Solubility in water,Solubility,Insoluble
"Clc1ccc(Nc2nnc(Cc3ccncc3)c3ccccc23)cc1 [PTK787, reference compound]",inhibition on c-Src,c-Src,no inhibition
same,best T/C %,[5],40%
same,"Weight after Removing Tumor, d0","human colon cancer HT-29; 200 mg/kg p.o. once daily d0-d20, d0 baseline",15.9 g
same,RTV x ± SD,human colon cancer HT-29; [8],4.9 ± 1.36
same,"TV x ± SD, dn",human colon cancer HT-29; [8],1185 ± 143
same,"Weight after Removing Tumor, dn","human colon cancer HT-29; 200 mg/kg p.o. once daily d0-d20, dn 21 days after first administration",13.9 g
same,"TV x ± SD, d0","human colon cancer HT-29; 200 mg/kg p.o., d0 baseline",252 ± 43
same,tolerance,"human colon cancer HT-29; mouse, in vivo, po",well tolerated
same,"Weight after Removing Tumor, d0",[6]; [9],19.5 g
same,RTV x ± SD,[6]; [9],9.4 ± 5.9
same,T/C,[6]; [9],76.4%
same,"TV x ± SD, dn",[6]; [9],1425 ± 613
same,"Weight after Removing Tumor, dn",[6]; [9],17.6 g
same,"TV x ± SD, d0",[6]; 50 mg/kg p.o.,171 ± 39
same,"Weight after Removing Tumor, d0",[6]; [10],19.3 g
same,RTV x ± SD,[6]; [10],8.8 ± 3.5
same,T/C,[6]; [10],71.5%
same,"TV x ± SD, dn",[6]; [10],1538 ± 402
same,"Weight after Removing Tumor, dn",[6]; [10],17.3 g
same,"TV x ± SD, d0",[6]; 100 mg/kg p.o.,175 ± 43
same,"Weight after Removing Tumor, d0",[6]; [11],18.8 g
same,RTV x ± SD,[6]; [11],7.4 ± 2.0
same,"TV x ± SD, dn",[6]; [11],1076 ± 198
same,"Weight after Removing Tumor, dn",[6]; [11],17.1 g
same,"TV x ± SD, d0",[6]; 200 mg/kg p.o.,150 ± 25
same,efficacy at 400 mg/kg,[6]; 400 mg/kg,did not increase significantly
same,ED50,"[6]; Mus musculus, LS174T, read-out: ED50 on colon cancer Ls174t",459 mg/kg
same,tolerance at 400 mg/kg,"[6]; mouse, in vivo",could be tolerated by mice
N#CC1(c2ccc(NC(=O)c3cccnc3NCc3ccncc3)cc2)CCCC1.O=P(O)(O)O [Phosphate of compound A],content after 6 Months Under Light,[1],97.1%
same,content after 6 Months at 60° C.,[1],94.2%
same,content after 6 Months at Room Temperature,[1],97.3%
same,AUC0→8 h Mol dose,in vivo,9074 ± 6292 ng·h/mL
same,Solubility in water,Solubility,Insoluble
N#CC1(c2ccc(NC(=O)c3cccnc3NCc3ccncc3)cc2)CCCC1.O=C(O)CCC(=O)O [Succinate of compound A],content after 6 Months Under Light,[1],94.2%
same,content after 6 Months at 60° C.,[1],93.8%
same,content after 6 Months at Room Temperature,[1],96.2%
